Laboratory results: patent publication US9212130B2, “Heterocyclic derivative and pharmaceutical composition comprising the same” (SHIONOGI & CO., LTD., priority 2010, dated 2015)

Biological target: human P2X3 receptor (Homo sapiens (Human), UniProt P56373)
Assay: Evaluation of human P2X3 receptor inhibitory activity (ATP-induced Fluo-3 fluorescence, FDSS 3000)
Format: cell-based
Conditions: C6BU-1 cell transfected with human P2X3 receptor gene
Description: The plate was placed in High-Throughput Screening System FDSS 3000 (Hamamatsu Photonics K.K.). […] Five minutes after, 50 nM ATP solution (50 μL) prepared by dilution with the dilution buffer was dispensed through the built-in automatic dispenser, and the measurement of fluorescence intensity was continued for 3 min. For each well, the specific maximum fluorescence intensity was calculated as the ratio of the maximum fluorescence intensity after addition of the ATP solution to the fluorescence intensity at the starting of the measurement. […] FDSS software (Hamamatsu Photonics K.K.) was used for calculation of the specific maximum fluorescence intensity. IC50 was calculated using Microsoft Excel (Microsoft. Corporation) and XLfit (idbs Ltd.)
The aforementioned in mM, μM and nM are each means mmol/L, μmol/L and nmol/L, respectively.
In tables, μM means μmol/L.

human P2X3 receptor, sequence (P56373 whole entry): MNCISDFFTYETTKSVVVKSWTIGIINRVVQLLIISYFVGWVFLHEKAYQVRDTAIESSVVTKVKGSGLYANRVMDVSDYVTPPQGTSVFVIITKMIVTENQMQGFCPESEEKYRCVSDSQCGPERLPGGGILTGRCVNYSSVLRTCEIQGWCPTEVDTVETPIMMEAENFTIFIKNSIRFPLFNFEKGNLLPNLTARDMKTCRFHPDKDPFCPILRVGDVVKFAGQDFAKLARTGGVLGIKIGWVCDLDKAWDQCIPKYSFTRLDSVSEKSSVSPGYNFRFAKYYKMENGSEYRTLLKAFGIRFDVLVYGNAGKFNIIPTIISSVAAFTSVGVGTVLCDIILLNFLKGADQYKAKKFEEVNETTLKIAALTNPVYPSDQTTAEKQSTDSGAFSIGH

SMILES | IC50 [nM]
CC(C)Oc1ccc(Nc2cc(=O)n(C[C@H](C)C(=O)O)c(=O)n2Cc2ccc(Cl)cc2)nc1 [I-217] | 453
CC(C)Oc1ccc(Nc2cc(=O)n(C[C@H](C)C(=O)O)c(=O)n2Cc2ccc(Cl)cc2)cc1 [I-218] | 55
CNc1cnc(Nc2ccc(OC(C)C)c(F)c2)n(Cc2ccc(Cl)cc2)c1=O [I-222] | 560
CC(C)Oc1ccc(Nc2ncc(NCCCO)c(=O)n2Cc2ccc(Cl)cc2)cc1F [I-223] | 724
CC(C)Oc1ccc(Nc2ncc(NCC3CCOCC3)c(=O)n2Cc2ccc(Cl)cc2)cc1F [I-224] | 511
CC(C)Oc1ccc(Nc2nc(=O)c3cc(C(F)(F)F)ccc3n2Cc2ccc(Cl)cc2)cc1Cl [I-227, 1-(4-chlorobenzyl)-2-(3-chloro-4-isopropoxyphenylamine)-6-trifluoromethylquinazoline-4(3H)-one] | 974
CC(C)Oc1ccc(Nc2nc(=O)c(NC(=O)OC(C)(C)C)cn2Cc2ccc(Cl)cc2)cc1F [I-230] | 92
CC(C)Oc1ccc(Nc2ncc(NC(=O)CCC(=O)O)c(=O)n2Cc2ccc(Cl)cc2)cc1F [I-231] | 226
CC(C)Oc1ccc(Nc2ncc(CCC(=O)O)c(=O)n2Cc2ccc(Cl)cc2)cc1F [I-232] | 681
CC(C)Oc1ccc(Nc2ncc(NC(=O)CC3CCOCC3)c(=O)n2Cc2ccc(Cl)cc2)cc1F [I-233] | 49
CC(C)Oc1ccc(Nc2ncc(NC(=O)C3CCOCC3)c(=O)n2Cc2ccc(Cl)cc2)cc1F [I-234, 2-(3-fluoro-4-isopropoxyphenylamino)-3-(4-chlorobenzyl)-5-(tetrahydro-2H-pyrane-4-ylcarbonylamino)pyrimidine-4(3H)-one] | 4
CC(C)Oc1ccc(Nc2ncc(NC(=O)C3CCOCC3)c(=O)n2Cc2ccc(Cl)cc2)cc1 [I-235] | 11
CC(C)Oc1ccc(Nc2ncc(NC(=O)C3CCOCC3)c(=O)n2Cc2ccc(Cl)cc2)cc1Cl [I-236] | 6
Cc1cc(Nc2ncc(NC(=O)C3CCOCC3)c(=O)n2Cc2ccc(Cl)cc2)ccc1OC(C)C [I-237] | 13
CC(C)Oc1ccc(Nc2nc(=O)c(NC(=O)C3CCOCC3)cn2Cc2ccc(Cl)cc2)cc1F [I-238] | 653
CC(C)Oc1ccc(Nc2nc(=O)c(NC=O)cn2Cc2ccc(Cl)cc2)cc1F [I-239] | 515
COCCC(=O)Nc1cn(Cc2ccc(Cl)cc2)c(Nc2ccc(OC(C)C)c(F)c2)nc1=O [I-240] | 417
CC(C)Oc1ccc(Nc2ncc(C(=O)NC3CCOCC3)c(=O)n2Cc2ccc(Cl)cc2)cc1F [I-242] | 67
CC(C)Oc1ccc(Nc2ncc(N)c(=O)n2Cc2ccc(Cl)cc2)cc1F [I-243] | 676
O=C(Nc1cnc(Nc2ccc(Oc3cc[nH]c(=O)c3)cc2)n(Cc2ccc(Cl)cc2)c1=O)C1CCOCC1 [I-244] | 2
O=C(Nc1cnc(Nc2ccc(Oc3cncc(F)c3)cc2)n(Cc2ccc(Cl)cc2)c1=O)C1CCOCC1 [I-245] | 0.8
CC(=O)Nc1cnc(Nc2ccc(OC(C)C)c(F)c2)n(Cc2ccc(Cl)cc2)c1=O [I-246] | 106
CC(C)Oc1ccc(Nc2ncc(NC(=O)C(C)C)c(=O)n2Cc2ccc(Cl)cc2)cc1F [I-247] | 19
COCCC(=O)Nc1cnc(Nc2ccc(OC(C)C)c(F)c2)n(Cc2ccc(Cl)cc2)c1=O [I-248] | 24
COCC(=O)Nc1cnc(Nc2ccc(OC(C)C)c(F)c2)n(Cc2ccc(Cl)cc2)c1=O [I-249] | 35

SMILES | IC50 [nM]
CCNC(=O)Nc1cnc(Nc2ccc(OC(C)C)c(F)c2)n(Cc2ccc(Cl)cc2)c1=O [I-250] | 7
CC(C)Oc1ccc(Nc2ncc(NS(C)(=O)=O)c(=O)n2Cc2ccc(Cl)cc2)cc1F [I-252] | 62
CC(C)Oc1ccc(Nc2ncc(N(S(C)(=O)=O)S(C)(=O)=O)c(=O)n2Cc2ccc(Cl)cc2)cc1F [I-253] | 536
CC(C)Oc1ccc(Nc2ncc(NC(=O)C(=O)O)c(=O)n2Cc2ccc(Cl)cc2)cc1F [I-254] | 20
CC(C)Oc1ccc(Nc2ncc(Br)c(=O)n2Cc2ccc(Cl)cc2)cc1F [I-257] | 319
CC(C)Oc1ccc(Nc2ncc(C(N)=O)c(=O)n2Cc2ccc(Cl)cc2)cc1F [I-258] | 47
CC(C)Oc1ccc(Nc2ncc(C#N)c(=O)n2Cc2ccc(Cl)cc2)cc1F [I-259] | 436
CCCC(=O)Nc1cnc(Nc2ccc(OC(C)C)c(F)c2)n(Cc2ccc(Cl)cc2)c1=O [I-260] | 15
CCc1nc2ccc(Nc3ncc(NC(=O)C4CCOCC4)c(=O)n3Cc3ccc(Cl)cc3)cc2s1 [I-262] | 3
Cc1nc2ccc(Nc3ncc(NC(=O)C4CCOCC4)c(=O)n3Cc3ccc(Cl)cc3)cc2s1 [I-264] | 4
Cc1ccc(Oc2ccc(Nc3ncc(NC(=O)C4CCOCC4)c(=O)n3Cc3ccc(Cl)cc3)cc2)cn1 [I-265] | 1
CC(C)Oc1ccc(Nc2ncc(C(=O)NNC=O)c(=O)n2Cc2ccc(Cl)cc2)cc1F [I-266] | 55
CC(=O)OC(C)(C)C(=O)Nc1cnc(Nc2ccc(OC(C)C)c(F)c2)n(Cc2ccc(Cl)cc2)c1=O [I-267] | 25
CC(C)Oc1ccc(Nc2ncc(NC(=O)C(C)(C)O)c(=O)n2Cc2ccc(Cl)cc2)cc1F [I-268] | 4
CC(C)Oc1ccc(Nc2ncc(NC(=O)CCO)c(=O)n2Cc2ccc(Cl)cc2)cc1F [I-269] | 31
CC(=O)N1CCC(C(=O)Nc2cnc(Nc3ccc(OC(C)C)c(F)c3)n(Cc3ccc(Cl)cc3)c2=O)CC1 [I-270] | 10
CC(C)Oc1ccc(Nc2ncc(C(=O)NNC(=O)OC(C)(C)C)c(=O)n2Cc2ccc(Cl)cc2)cc1F [I-271] | 29
CC(C)Oc1ccc(Nc2ncc(C(=O)NN)c(=O)n2Cc2ccc(Cl)cc2)cc1F [I-272] | 104
COc1cc(C(=O)Nc2cnc(Nc3ccc(OC(C)C)c(F)c3)n(Cc3ccc(Cl)cc3)c2=O)ccn1 [I-273] | 95
COc1ccc(C(=O)Nc2cnc(Nc3ccc(OC(C)C)c(F)c3)n(Cc3ccc(Cl)cc3)c2=O)cn1 [I-274] | 66
CC(C)Oc1ccc(Nc2ncc(NC(=O)c3cc[nH]c(=O)c3)c(=O)n2Cc2ccc(Cl)cc2)cc1F [I-275] | 11
CC(C)Oc1ccc(Nc2ncc(NC(=O)c3ccc(=O)[nH]c3)c(=O)n2Cc2ccc(Cl)cc2)cc1F [I-276] | 32
CC(C)Oc1ccc(Nc2ncc(NC(N)=O)c(=O)n2Cc2ccc(Cl)cc2)cc1F [I-277] | 49
CC(C)Oc1ccc(Nc2ncc(NC(=O)N3CCOCC3)c(=O)n2Cc2ccc(Cl)cc2)cc1F [I-278] | 16
CC(C)Oc1ccc(Nc2ncc(NC(=O)c3ccn(C)c(=O)c3)c(=O)n2Cc2ccc(Cl)cc2)cc1F [I-279] | 139

SMILES | IC50 [nM]
Cc1nc2ccc(Nc3ncc(C)c(=O)n3Cc3ccc(Cl)cc3)cc2s1 [I-280] | 237
CCOC(=O)c1cn(Cc2ccc(Cl)cc2)c(Nc2ccc3nc(C)sc3c2)nc1=O [I-282] | 272
CC(C)Oc1ccc(Nc2ncc(NC(=O)C3COC(C)(C)OC3)c(=O)n2Cc2ccc(Cl)cc2)cc1F [I-287] | 23
CC(C)Oc1ccc(Nc2ncc(NC(=O)C(CO)CO)c(=O)n2Cc2ccc(Cl)cc2)cc1F [I-288] | 17
CC(C)Oc1ccc(Nc2ncc(NC(=O)C(C)(C)C#N)c(=O)n2Cc2ccc(Cl)cc2)cc1F [I-290] | 23
CC(=O)Nc1cnc(Nc2ccc(Oc3ccc(C)nc3)cc2)n(Cc2ccc(Cl)cc2)c1=O [I-291] | 43
Cc1ccc(Oc2ccc(Nc3ncc(N)c(=O)n3Cc3ccc(Cl)cc3)cc2)cn1 [I-292] | 433
CC(=O)OC(C)(C)C(=O)Nc1cnc(Nc2ccc(Oc3ccc(C)nc3)cc2)n(Cc2ccc(Cl)cc2)c1=O [I-293] | 14
Cc1ccc(Oc2ccc(Nc3ncc(NC(=O)C4COC(C)(C)OC4)c(=O)n3Cc3ccc(Cl)cc3)cc2)cn1 [I-294] | 9
Cc1ccc(Oc2ccc(Nc3ncc(NC(=O)C(C)(C)O)c(=O)n3Cc3ccc(Cl)cc3)cc2)cn1 [I-295] | 2
Cc1ccc(Oc2ccc(Nc3ncc(NC(=O)C(CO)CO)c(=O)n3Cc3ccc(Cl)cc3)cc2)cn1 [I-296] | 7
CC(=O)Nc1cnc(Nc2ccc3nc(C)sc3c2)n(Cc2ccc(Cl)cc2)c1=O [I-297] | 112
Cc1ccc(Oc2ccc(Nc3ncc(NC(=O)C(CO)CO)c(=O)n3Cc3ccc(Cl)cc3)cc2)cn1 [I-298] | 8
COCCCNC(=O)c1cn(Cc2ccc(Cl)cc2)c(Nc2ccc3nc(C)sc3c2)nc1=O [I-300] | 164
Cc1nc2ccc(Nc3nc(=O)c(C(=O)NCCC#N)cn3Cc3ccc(Cl)cc3)cc2s1 [I-301] | 123
CC(=O)N1CCC(NC(=O)c2cn(Cc3ccc(Cl)cc3)c(Nc3ccc4nc(C)sc4c3)nc2=O)CC1 [I-302] | 87
COC(=O)c1cncc(Oc2ccc(Nc3ncc(NC(=O)C4CCOCC4)c(=O)n3Cc3ccc(Cl)cc3)cc2)c1 [I-304] | 2
Cc1nc2ccc(Nc3ncc(Br)c(=O)n3Cc3ccc(Cl)cc3)cc2s1 [I-306] | 207
Cc1nc2ccc(Nc3nc(=O)c(C(=O)NC(C)C)cn3Cc3ccc(Cl)cc3)cc2s1 [I-307] | 40
Cc1nc2ccc(Nc3nc(=O)c(C(=O)NC4COC4)cn3Cc3ccc(Cl)cc3)cc2s1 [I-308] | 133
Cc1nc2ccc(Nc3nc(=O)c(C(=O)NC4CC4)cn3Cc3ccc(Cl)cc3)cc2s1 [I-309] | 61
Cc1nc2ccc(Nc3nc(=O)c(C(=O)NN(C)C)cn3Cc3ccc(Cl)cc3)cc2s1 [I-310] | 132
O=C(Nc1cnc(Nc2ccc(Oc3cnc(Cl)c(F)c3)cc2)n(Cc2ccc(Cl)cc2)c1=O)C1CCOCC1 [I-311] | 4
CSc1ccc(Cn2c(Nc3ccc4nc(C)sc4c3)ncc(NC(=O)C3CCOCC3)c2=O)cc1 [I-312] | 11
CCn1c(=O)cc(Nc2ccc(Oc3cncc(C(=O)OC)c3)cc2)n(Cc2ccc(Cl)cc2)c1=O [I-314] | 35
